{"source": "ChEMBL document CHEMBL1144167", "about": "“Development and biological evaluation of C(60) fulleropyrrolidine-thalidomide dyad as a new anti-inflammation agent” (2008)", "key": {"RAW264.7 [1]": {"test_system": "RAW264.7", "test": "Antiinflammatory activity in mouse RAW264.7 cells assessed as inhibition of LPS-induced nitric oxide production pretreated for 3 hrs before LPS challenge assessed after 24 hrs by griess assay", "assay_type": "functional, cell-based"}, "RAW264.7 [2]": {"test_system": "RAW264.7", "test": "Antiinflammatory activity in mouse LPS-activated RAW264.7 cells assessed as mean fluorescent intensity of ROS scavenging activity at 10 uM pretreated for 3 hrs before LPS challenge by FACS", "assay_type": "functional"}, "RAW264.7 [3]": {"test_system": "RAW264.7", "test": "Reduction in pERK1/2 expression in LPS-activated mouse RAW264.7 cells at 10 uM pretreated for 3 hrs before LPS challenge assessed after 24 hrs by Western blot", "assay_type": "functional, cell-based"}, "RAW264.7 [4]": {"test_system": "RAW264.7", "test": "Reduction in iNOS expression in LPS-activated mouse RAW264.7 cells at 1 uM pretreated for 3 hrs before LPS challenge assessed after 24 hrs by Western blot", "assay_type": "functional, cell-based"}, "RAW264.7 [5]": {"test_system": "RAW264.7", "test": "Antiinflammatory activity in mouse RAW264.7 cells assessed as inhibition of LPS-induced TNFalpha synthesis at 10 uM pretreated for 3 hrs before LPS challenge assessed after 24 hrs by ELISA relative to control", "assay_type": "functional", "set-up": "scale not given: the % may be the effect or the level left"}, "RAW264.7 [6]": {"test_system": "RAW264.7", "test": "Reduction in iNOS expression in LPS-activated mouse RAW264.7 cells at 10 uM pretreated for 3 hrs before LPS challenge assessed after 24 hrs by Western blot", "assay_type": "functional, cell-based"}, "RAW264.7 [7]": {"test_system": "RAW264.7", "test": "Antiinflammatory activity in mouse RAW264.7 cells assessed as inhibition of LPS-induced nitric oxide production at 10 uM pretreated for 3 hrs before LPS challenge assessed after 24 hrs by griess assay relative to control", "assay_type": "functional", "set-up": "scale not given: the % may be the effect or the level left"}, "RAW264.7 [8]": {"test_system": "RAW264.7", "test": "Antiinflammatory activity in mouse LPS-activated RAW264.7 cells assessed as ROS scavenging activity at 10 uM pretreated for 3 hrs before LPS challenge measured by decrease in fluorescent intensity by confocal microscopy", "assay_type": "functional, cell-based"}}, "note": "Calls of active or inactive are those of the source. The calls are words filed in the database; no cut-off is given here."}
{"molecule": "O=C1CCC(N2C(=O)c3ccccc3C2=O)C(=O)N1", "note": "(stereo not drawn) [THALIDOMIDE]", "values": [{"measurement": "Activity", "setting": "RAW264.7 [1]", "result": "Dose-dependent effect"}, {"measurement": "Flu intensity", "setting": "RAW264.7 [2]", "result": 468.37}, {"measurement": "Activity", "setting": "RAW264.7 [3]", "result": "Active"}, {"measurement": "Activity", "setting": "RAW264.7 [4]", "result": "Active"}, {"measurement": "Activity", "setting": "RAW264.7 [5]", "result": 55.5, "unit": "%"}, {"measurement": "Activity", "setting": "RAW264.7 [6]", "result": "Active"}, {"measurement": "Activity", "setting": "RAW264.7 [7]", "result": 44.1, "unit": "%"}, {"measurement": "Activity", "setting": "RAW264.7 [8]", "result": "Active"}]}
